≈ marks a conversion by molar mass, not a printed value. Counter-ions that a name gives are not always drawn. *1 amine or outer side, *2 acyl side, *3 side chain or, on linkers, in order; H or OH if unused. Where a SMILES comes first, the peptide text is derived from it. Bridges are numbered along the chain shown (N, C = ends). Roman numbers before positions name the chains, in order. [ ]: non-standard residue; d: D form. Actinocin(9to1) = Cc1c2oc3c(C)ccc(C(=O)[*:1])c3nc-2c(C(=O)[*:2])c(N)c1=O; NMeV = CN[C@H](C(=O)O)C(C)C; Sar = CNCC(=O)O
Experiments:
[1] = test system: Human Umbilical Vein Endothelial (HUVEC) cell line; assay: cells; conditions: 24 h, read-out: MTT IC 50
[2] = test system: Bacillus Calmette–Guérin (BCG) (1173P2); assay: organism not typed; assay type: cell-based, Mycobacterium bovis
[3] = test system: Human Umbilical Vein Endothelial (HUVEC) cell line
[4] = test system: M. tuberculosis; conditions: cited from earlier work; for activity against mychobacterium tuberculosis: both active and persistent form
[5] = test system: pantothenate synthetase (PanC, Rv3602c); conditions: HTS hits; cited from earlier work
[6] = 48 h, read-out: MIC 48 h, BCG, alamar blue, colour read after 48 h reincubation
[7] = 72 h, read-out: BCG MIC, Table 4, same values as 72 h reading
[8] = 72 h, read-out: MIC 72 h, BCG, alamar blue, colour read after 72 h reincubation
[9] = 72 h, read-out: MIC, Mycobacterium bovis BCG, corresponds to 72 h values

Row | Compound | IC50 [1] [µg/mL] | MIC [2, 6] [µg/mL] | MIC [2, 7] [µg/mL] | MIC [2, 8] [µg/mL] | MIC [2, 9] [µg/mL] | further results
1 | O=C(O)/C=C/c1cnc[nH]1 [Compound 1j] | 1190 (≈ 8590 µM) | 500 (≈ 3620 µM) | 500 (≈ 3620 µM) | 500 (≈ 3620 µM) | – | antimycobacterial activity ([2]; BCG): no activity
2 | c1ccc2[nH]ccc2c1 [Compound 1c, indole] | 573 (≈ 4890 µM) | 125 (≈ 1070 µM) | 46.9 (≈ 400 µM) | 46.9 (≈ 400 µM) | 46.9 (≈ 400 µM) | selectivity indices (SI) [3]: ≥ 10; tuberculostatic effect [4]: comparable with Isoniazid
3 | Cc1cc(C(=O)O)no1 [Compound 2a, 5-methylisoxazole-3-carboxylic acid] | 1090 (≈ 8600 µM) | 500 (≈ 3930 µM) | 125 (≈ 983 µM) | 125 (≈ 983 µM) | – | antimycobacterial activity ([2]; BCG): no antimycobacterial activity
4 | O=C(O)c1cc2ccccc2oc1=O [Compound 2b, coumarin-3-carboxylic acid] | 924 (≈ 4860 µM) | 125 (≈ 657 µM) | 31.2 (≈ 164 µM) | 31.2 (≈ 164 µM) | 31.2 (≈ 164 µM) | selectivity indices (SI) [3]: ≥ 10
5 | NCCCn1ccnc1 [Compound 1i] | 441 (≈ 3520 µM) | 250 (≈ 2000 µM) | 125 (≈ 999 µM) | 125 (≈ 999 µM) | – | –
6 | Nc1ccc2c(c1)Cc1ccccc1-2 [Compound 1e, 2-fluorenamine] | 726 (≈ 4010 µM) | 31.2 (≈ 172 µM) | 11.7 (≈ 64.7 µM) | 11.7 (≈ 64.7 µM) | 11.7 (≈ 64.7 µM) | selectivity indices (SI) [3]: ≥ 10
7 | Cc1c2oc3c(C)ccc(C(=O)N[C@@H]4C(=O)N[C@H](C(C)C)C(=O)N5CCC[C@H]5C(=O)N(C)CC(=O)N(C)[C@@H](C(C)C)C(=O)O[C@@H]4C)c3nc-2c(C(=O)N[C@@H]2C(=O)N[C@H](C(C)C)C(=O)N3CCC[C@H]3C(=O)N(C)CC(=O)N(C)[C@@H](C(C)C)C(=O)O[C@@H]2C)c(N)c1=O [actinomycin D] (I: T[dV]P[Sar][NMeV] / II: T[dV]P[Sar][NMeV]; ester I:1-I:C, II:1-II:C; linker I:N-II:N via Actinocin(9to1)) | – | – | – | – | – | activity against pantothenate synthetase [5]: poor activity
8 | c1ccc2c(c1)CCN2 [Compound 1d, indoline] | 800 (≈ 6710 µM) | 31.2 (≈ 262 µM) | 7.81 (≈ 65.5 µM) | 7.81 (≈ 65.5 µM) | 7.81 (≈ 65.5 µM) | –
9 | Nc1ccccc1 [Compound 1a] | 1040 (≈ 11100 µM) | 500 (≈ 5370 µM) | 250 (≈ 2680 µM) | 250 (≈ 2680 µM) | – | –
10 | C[C@]1(COc2ccc(N3CCC(Oc4ccc(OC(F)(F)F)cc4)CC3)cc2)Cn2cc([N+](=O)[O-])nc2O1 [OPC-676833] | – | – | – | – | – | activity against mychobacterium tuberculosis [4]: good in-vitro and in-vivo activity
11 | CC[C@@H](CO)NCCN[C@@H](CC)CO [ethambutol, Ethambutol, reference compound] | – | – | – | – | – | MIC ([2]; Bacillus, BCG, read-out: MIC of ethambutol, positive control, table footnote, reading time not given): 3.12 µg/mL
12 | CCN(CC)CCOC(=O)C(Cc1cccc2ccccc12)CC1CCCO1 (stereo not shown) [nafronyl oxalate] | – | – | – | – | – | activity against pantothenate synthetase [5]: poor activity
13 | N#Cc1ccccc1N [Compound 1b] | 908 (≈ 7680 µM) | 500 (≈ 4230 µM) | 93.8 (≈ 794 µM) | 93.8 (≈ 794 µM) | – | –
14 | O=C1c2ccccc2C(=O)N1CCO [Compound 1h, N-(2-Hydroxyethyl)-phthalimide] | 842 (≈ 4400 µM) | 500 (≈ 2620 µM) | 500 (≈ 2620 µM) | 500 (≈ 2620 µM) | – | antimycobacterial activity ([2]; BCG): did not show good activity
15 | Nc1cccc2c1C(=O)c1ccccc1C2=O [Compound 1f, 1-aminoanthraquinone] | 14.2 (≈ 63.5 µM) | 188 (≈ 840 µM) | 7.81 (≈ 35 µM) | 7.81 (≈ 35 µM) | 7.8 (≈ 34.9 µM) | cytotoxicity in HUVEC cell line [3]: not in acceptable range; MIC ([2]; Mycobacterium bovis BCG, corresponds to 72 h values): 7.81 µg/mL (≈ 35 µM)
16 | Nc1ccc(Nc2ccccc2)c2c1C(=O)c1ccccc1C2=O [Compound 1g, 1-amino-4-anilino-9,10-anthraquinone] | 344 (≈ 1100 µM) | 7.81 (≈ 24.8 µM) | < 3.9 | < 3.9 | < 3.9 | selectivity indices (SI) [3]: ≥ 10
17 | COc1cccc2c1C(=O)c1c(O)c3c(c(O)c1C2=O)C[C@@](O)(C(=O)CO)C[C@@H]3O[C@H]1C[C@H](N)[C@H](O)[C@H](C)O1 [doxorubicin, reference compound] | 3.1 (≈ 5.7 µM) | – | – | – | – | –
18 | O=[N+]([O-])c1cn2c(n1)OC[C@@H](OCc1ccc(OC(F)(F)F)cc1)C2 [PA-8242] | – | – | – | – | – | activity against mychobacterium tuberculosis [4]: good in-vitro and in-vivo activity

— paper PMC4277633 (Iranian Journal of Pharmaceutical Research : IJPR, 2015)
